Series [1] concerns MCF-7 human breast cancer cells. Kind of series: cell viability/apoptosis after 24 h exposure to pro-apoptotic peptides and CPP fusions. In kind it is cell-based. Particulars: MCF-7 cells; for cell viability / cytotoxicity due to induction of apoptosis: 20 μM; for cell viability / induction of apoptosis: various concentrations. As for the experimental part: MCF-7 human breast cancer cells were incubated for 24 h in the presence of various concentrations of NRTN (squares), Nur (circles), and NurNRTN (triangles) peptides. The respective amino acid sequences are given in the bottom panel. The experimental approach for assessing cell viability (and thus induction of apoptosis) was the same as in FIG. 3.
MCF-7 human breast cancer cells were incubated for 24 h in the presence of various concentrations of 4E-BP1 (circles), TAT4E-BP1 (squares), and NRTN4E-BP1 (triangles) peptides (top panel). […] The respective amino acid sequences are given in the bottom panel. The experimental approach for assessing cell viability (and thus induction of apoptosis) was the same as in FIG. 3.
Luminescence was analyzed in an InfiniteF200 luminescence reader.
Then, the cells were treated with a luminogenic peptide substrate in order to measure dead-cell protease activity, which is released from cells that have lost membrane integrity. […] The luminescence of this assay therefore represents dead cells. The 96 well plates were then analyzed in an InfiniteF200 luminescence reader.
Despite its proven ability to convert BCL-2 into a pro-apoptotic molecule, addition of the latter peptide (i.e. “Nor/Nur”; SEQ ID NO: 72) to cancer cells, even in high concentrations, is not sufficient to induce apoptosis, as the cellular target protein is located in the cytoplasm, but the peptide per se cannot effectively penetrate through the cell membrane to reach the target. In brief, MCF-7 breast cancer cells were incubated in the presence of this peptide for 24 h.
Subsequently, it was evaluated whether the NurNRTN fusion peptide is capable of penetrating cellular membranes and thereby induces pro-apoptotic activity within cells. MCF-7 human breast cancer cells were used as a model. The experimental approach was as described above (cf. Example 1). […] This effect was dose dependent: cytotoxicity increased with increasing concentrations of peptide.
Subsequently, it was evaluated whether the NRTN4E-BP1 fusion peptide is capable of penetrating cellular membranes and thereby induces pro-apoptotic activity within cells. MCF-7 human breast cancer cells were used as a model. The experimental approach was as described above (cf. Example 1). […] This effect was dose dependent: cytotoxicity increased with increasing concentrations of peptide.

The subject of series [2] is human Aha1 mRNA. Briefly: siRNA transfection screening (siAha1 vs siGL3 control, bDNA assay of Aha1/GAPDH mRNA). Type of series: cell-based. The protocol:
For the quantification of cellular mRNA levels bDNA (branched DNA) assays were performed which enable the detection of individual mRNA levels. To this end, a defined number of the cells to be analyzed was seeded into 96-well plates and allowed to attach over night. On the next day, the cells were transfected with siRNA.
After further 24 hours, the mRNA species were quantified using the QuantiGene Plex 2.0 assay kit according to the manufacturers instructions (Affymetrix Inc., Santa Clara, Calif., USA). In brief, cell lysates were transferred to a capture plate in the presence of a gene-specific probe set and incubated at 53° C. over night. After washing, the wells were sequentially incubated at 53° C. with an amplifier agent and an alkaline phosphatase (AP)-linked label probe with a washing step in between. Subsequently, the luminescent AP substrate dioxitane was added and incubated for 30 min at 53° C. Luminescence was assayed using an InfiniteF200 luminescence reader (Tecan Austria GmbH, Groding, Austria).
In order to analyze the potential CPPs for their ability to transfect siRNA into mammalian cells an increasing peptide concentration (from 1 μM to 20 μM) was employed along with a constant siRNA concentration (100 nM). This range of peptide concentrations was used as it had been shown that positively charged peptides such as TAT are internalized into cells in ranges up to 10 μM and remain in intracellular membrane compartments without significant egress into the cytosol (Duchardt, F. et al. (2007) Traffic 8, 848-866). […] A concentration of 10 nM siRNA is in the saturation range as determined in control experiments using the DharmaFECT transfection reagent (Dharmacon, Inc., Lafayette, Colo., USA; data not shown).
The siRNA oligonucleotides employed were directed against human Aha1 mRNA (Panaretou, B. et al. (2002) Mol. Cell 10, 1307-1318) or against luciferase mRNA as a control.
Complexes of siRNA and the respective peptides were formed in OptiMEM medium and incubated for 15 minutes at room temperature. The cells were incubated in the presence of the complexes for three hours in OptiMEM. After washing, the cells were incubated for further 21 or 45 hours in normal growth medium. Thereafter, the levels of Aha1 mRNA and a reference mRNA (i.e. GAPDH mRNA) were measured by means of a bDNA assay. These assays were performed with cells that were transfected with siAHA1 and with a control siRNA (siGL3, luciferase), respectively.
As a measure for specific RNAi, the reduction of Aha1 mRNA levels relative to GAPDH mRNA levels was compared in siAHA1-transfected cells and siGL3-transfected cells. Specific siRNA mediated transfection causes a reduction in Aha1/GAPDH mRNA values in siAhA1-compared to siGL3-transfected cells. FIG. 3 depicts the screening readout of these assays: the Aha1/GAPDH mRNA values of non-transfected control cells were set to 100% (for each assay), and the Aha1/GAPDH mRNA values of siAha1- or siGL3-transfected cells were expressed relative to that. For this normalized data set, the differences between the respective Aha1/GAPDH mRNA levels of siAha1- and siGL3-transfected cells were determined. Specific peptides caused a significant reduction in siAha1 transfection without reducing siGL3 transfections, which results in positive difference values. The more pronounced these values are, the more specific RNAi is observed (cf. FIG. 3).

For series [3], the system named is MCF7 cells. Kind of series: FACS analysis of internalization of FITC-labeled peptides. Type of series: cell-based, human. Particulars: FITC-labeled peptide 1, 5, 10 μM; 3 hours at 37° C.; proteinase K treated. As for the experimental part:
For FACS analysis, MCF7 cells (ATCC number HTB-22) were detached by 15 min incubation in accutase (an enzyme solution having proteolytic and collagenolytic activities; commercially available from various suppliers). After washing in FACS buffer (PBS containing 5% FCS), the cells were seeded in a 96 well, rounded bottom multi-well plate (Cat. No. 3799, Corning Inc., Corning, N.Y. USA) in a final density of 3×10^5 cells/ml and used immediately. The cells were incubated in the respective presence of 1 μM, 5 μM and 10 μM FITC-labeled peptides in OptiMEM medium for 3 hours at 37° C. Afterwards, the cells were washed in FACS buffer and incubated in proteinase K (0.02 mg/ml) containing buffer for 30 minutes at 37° C. The cells were washed twice and analyzed with the FACSCanto II (BD Biosciences; San Jose, Calif., USA) using the FITC channel.
For determining the internalization behavior of the CPPs identified in the screening procedures FITC-labeled derivates of said peptides (at 1 μM, 5 μM, and 10 μM, respectively) were analyzed by means of FACS. The following peptides were used: NRTN as a transfecting peptide, WNT16 as a non-transfecting peptide, FALL as a toxic peptide and TAT as a reference (positive control) (cf. FIG. 12). MCF7 cells were incubated in the presence of the fluorescent peptide derivatives for 3 hours at 37° C. in OptiMEM. Subsequently, the cells were treated with proteinase K for 30 minutes at 37° C. to remove surface bound peptides, and thus to ensure the monitoring only of internalized peptides. The cells were then washed in PBS and analyzed by FACS.

The test system of series [4] is MCF7 cells. Briefly: growth inhibition/toxicity (CellTiter-Glo viability, GAPDH mRNA levels). Particulars: MCF7 cells; peptide 1 μM to 20 μM.
Method: MCF7 cells were seeded at a density of 15.000 cells per well in 96 well plates. The cells were incubated for 24 hours at 37° C., 5% CO2 and 85% humidity in RPMI 1640 medium supplemented with 10% FCS (fetal calf serum) and L-glutamine. For functional assays, the cells were washed in OptiMEM medium and RPMI 1640 was replaced with OptiMEM (all reagents were purchased from Invitrogen Corporation, Carlsbad, Calif., USA). Complexes of siRNAs and peptides were formed by incubation of 100 nM siRNA with the indicated peptide concentrations in OptiMEM for 30 minutes at room temperature. The complexes were added to the cells and incubated for 3 hours. Subsequently, OptiMEM was replaced with normal RPMI 1640 growth medium. The cells were incubated for further 21 hours for generating bDNA lysates, and for further 45 hours for performing CellTiter-Glo or CytoTox-Glo assays (cf. below).
In order to measure the number of living cells the CellTiter-Glo Luminescent Cell Viability Assay (Promega Corporation, Madison, Wis., USA) was used according to the protocol of the manufacturer. The cells were incubated for 48 hours in the presence of peptides and siRNAs. Subsequently, the cells are lysed, and a luminescent signal proportional to the amount of ATP present is generated which, in turn, is proportional to the number of living cells present. Luminescence was analyzed in an InfiniteF200 luminescence reader.
Based on this observation, GAPDH mRNA levels were used as a general readout for toxicity: an average measurement of 100% GAPDH mRNA relative to the medium control was considered as non-toxic, values between 99% and 70% as moderate toxic, and values of less than 70% as toxic (cf. FIG. 3).
Similarly, peptides resulting in GAPDH mRNA values >70% were classified as “nontoxic”, whereas peptides that caused a reduction of GAPDH mRNA to lesser values were termed “toxic”.

With `CC[C@H](C)[C@H](NC(=O)[C@H](CCCNC(=N)N)NC(=O)[C@@H](NC(=O)CNC(=O)[C@H](CCCNC(=N)N)NC(=O)[C@H](CCCNC(=N)N)NC(=O)[C@H](CCCNC(=N)N)NC(=O)[C@H](CCC(N)=O)NC(=O)[C@H](CCCNC(=N)N)NC(=O)[C@H](CCCNC(=N)N)NC(=O)[C@H](CCCCN)NC(=O)[C@H](CCCCN)NC(=O)[C@H](CCCNC(=N)N)NC(=O)CNC(=O)[C@H](Cc1ccc(O)cc1)NC(=O)CCOCCOCCOCCNC(=O)[C@@H](N)CS)[C@@H](C)O)C(=O)N[C@H](C(=O)N[C@@H](Cc1ccc(O)cc1)C(=O)N[C@@H](CC(=O)O)C(=O)N[C@@H](CCCNC(=N)N)C(=O)N[C@@H](CCCCN)C(=O)N[C@@H](Cc1ccccc1)C(=O)N[C@@H](CC(C)C)C(=O)N[C@@H](CCSC)C(=O)N[C@@H](CCC(=O)O)C(=O)N[C@@H](CS)C(=O)N[C@@H](CCCNC(=N)N)C(=O)N[C@@H](CC(N)=O)C(=O)N[C@@H](CO)C(=O)N1CCC[C@H]1C(=O)N[C@H](C(=O)N[C@H](C(=O)O)[C@@H](C)O)C(C)C)[C@@H](C)CC` [TAT4E-BP1, reference compound], the “cell viability / cytotoxicity due to induction of apoptosis” value in series [1] was “clear evidence for reduction in cell viability and cytotoxicity”.
Consider `CC[C@H](C)[C@H](NC(=O)[C@H](CCCNC(=N)N)NC(=O)[C@@H](NC(=O)CNC(=O)[C@H](CCCNC(=N)N)NC(=O)[C@H](CCCNC(=N)N)NC(=O)[C@H](CCCNC(=N)N)NC(=O)[C@H](CCC(N)=O)NC(=O)[C@H](CCCNC(=N)N)NC(=O)[C@H](CCCNC(=N)N)NC(=O)[C@H](CCCCN)NC(=O)[C@H](CCCCN)NC(=O)[C@H](CCCNC(=N)N)NC(=O)CNC(=O)[C@H](Cc1ccc(O)cc1)NC(=O)CCOCCOCCOCCNC(=O)[C@@H](N)CS)[C@@H](C)O)C(=O)N[C@H](C(=O)NCC(=O)N[C@@H](CC(=O)O)C(=O)NCC(=O)N[C@@H](CCCCN)C(=O)N[C@@H](Cc1ccccc1)C(=O)NCC(=O)N[C@@H](CCSC)C(=O)N[C@@H](CCC(=O)O)C(=O)N[C@@H](CS)C(=O)N[C@@H](CCCNC(=N)N)C(=O)N[C@@H](CC(N)=O)C(=O)N[C@@H](CO)C(=O)N1CCC[C@H]1C(=O)N[C@H](C(=O)N[C@H](C(=O)O)[C@@H](C)O)C(C)C)[C@@H](C)CC` [TATinact4E-BP1, reference compound], for which the “cell viability / cytotoxicity due to induction of apoptosis” value in series [1] is “completely inactive”.
As to “FALLGDFFRKSKEKIGKEFKRIVQRIKDFLRNLVPRTES (FALL39 Var.1 peptide sequence; listed as Homo sapiens)”, the “specific reduction of Aha1 mRNA at lower concentrations” value in series [2] (5 μM peptide) was “clear and specific reduction of Aha1 mRNA”. For the same molecule, the “specific Aha1 mRNA reduction (relative to GAPDH mRNA) where toxicity is pronounced” value in series [2] (10 μM or higher) is reported as “only inconclusive evidence for a specific Aha1 mRNA reduction”. Moreover, the “transfection efficacy compared with TAT / control peptides” value in series [2] (NRTN: at lower non-toxic concentrations) is “inferior transfection efficacy than TAT”. Moreover, in series [3], the “internalization into cells (FACS, FITC channel)” value was “strong accumulation”. Also, the “cell viability / growth inhibition / toxicity (CellTiter-Glo, GAPDH mRNA levels)” value in series [4] is “significant toxicity”.
Take “FSRSLHSLLVDL (C-terminal Nor1 peptide sequence; listed as Homo sapiens) [Nor/Nur, reference compound]”: the “cell viability / induction of apoptosis” value in series [1] is on record as “No reduction in cell viability or induction of apoptosis was observed”.
For the molecule “GAAEAAARVYDLGLRRLRQRRRLRRERVRAGTRIIGDGKFGMECRNSPVT (inactive NRTN4E-BP1 peptide sequence) [NRTNinact4E-BP1]”, in series [1], the “cell viability / induction of apoptosis” value is “inactive”.
As for “GAAEAAARVYDLGLRRLRQRRRLRRERVRAGTRIIYDRKFLMECRNSPVT [NRTN4E-BP1]”, in series [1], the “potency compared to TAT-fused counterpart” value is recorded as “significantly higher potency” and the “cell viability / induction of apoptosis” value is “remarked cytotoxicity”.
“GTRIIYDRKFLMECRNSPVT [4E-BP1, reference compound]”: the “cell viability / induction of apoptosis” value in series [1] is given as “No reduction in cell viability or induction of apoptosis was observed”.
With “PROK2: candidate peptide displaying the highest similarity with TAT (LTRKNNFGNGRQERRKRKRSKRKKEVPFFG; PROK2 peptide sequence; listed as Homo sapiens)”, in series [2] (MCF7 cells, 100 nM siRNA, peptide 1 μM to 20 μM), the “siRNA transfection activity (specific Aha1 mRNA reduction relative to GAPDH mRNA)” value was “did not show detectable transfection activity”.

The values are drawn from US9303076B2, “Cell-penetrating peptides and uses thereof” (Hoffmann-La Roche Inc., priority 2010, dated 2016).
